According to US20050171101A1 (Fujisawa Pharmaceutical Co. Ltd., priority 2002, published 2005):
Structures can show the parent of a compound that is named as a salt.

target: recombinant human PARP (Homo sapiens, UniProt P09874); test: PARP inhibitory activity (In vitro assay); type: biochemical; conditions: 32P-NAD, 0.05 mM NAD, activated DNA, pH8.0, 15 minutes at room temperature
Procedure: PARP inhibitory activity (In vitro assay)
The recombinant human PARP (5.3 mg protein/ml) was incubated with a test compound in a 100 μl reaction buffer containing an indicated concentration of 1 mCi/ml ^32P-NAD, 50 mM Tris-HCl, 25 mM MgCl2, 1 mM DTT (dithiothreitol), 0.05 mM NAD (nicotinamide adenine dinucleotide) and 1 mg/ml activated DNA, pH8.0. Incubation was carried out for 15 minutes at a room temperature, and the reaction was stopped by addition of 200 μl of ice-cold 20% tricholoroacetic acid followed by rapid filtration through GF/B filters. The […] was treated with scintillation fluid and acid-insoluble counts were measured for quantification of unit activity. PARP inhibitory activity was calculated by using the following formula: PARP inhibitory activity (%)=[1-(count obtained with test compound)/(count obtained with vehicle only)]×100

Sequence of recombinant human PARP (P09874 whole entry): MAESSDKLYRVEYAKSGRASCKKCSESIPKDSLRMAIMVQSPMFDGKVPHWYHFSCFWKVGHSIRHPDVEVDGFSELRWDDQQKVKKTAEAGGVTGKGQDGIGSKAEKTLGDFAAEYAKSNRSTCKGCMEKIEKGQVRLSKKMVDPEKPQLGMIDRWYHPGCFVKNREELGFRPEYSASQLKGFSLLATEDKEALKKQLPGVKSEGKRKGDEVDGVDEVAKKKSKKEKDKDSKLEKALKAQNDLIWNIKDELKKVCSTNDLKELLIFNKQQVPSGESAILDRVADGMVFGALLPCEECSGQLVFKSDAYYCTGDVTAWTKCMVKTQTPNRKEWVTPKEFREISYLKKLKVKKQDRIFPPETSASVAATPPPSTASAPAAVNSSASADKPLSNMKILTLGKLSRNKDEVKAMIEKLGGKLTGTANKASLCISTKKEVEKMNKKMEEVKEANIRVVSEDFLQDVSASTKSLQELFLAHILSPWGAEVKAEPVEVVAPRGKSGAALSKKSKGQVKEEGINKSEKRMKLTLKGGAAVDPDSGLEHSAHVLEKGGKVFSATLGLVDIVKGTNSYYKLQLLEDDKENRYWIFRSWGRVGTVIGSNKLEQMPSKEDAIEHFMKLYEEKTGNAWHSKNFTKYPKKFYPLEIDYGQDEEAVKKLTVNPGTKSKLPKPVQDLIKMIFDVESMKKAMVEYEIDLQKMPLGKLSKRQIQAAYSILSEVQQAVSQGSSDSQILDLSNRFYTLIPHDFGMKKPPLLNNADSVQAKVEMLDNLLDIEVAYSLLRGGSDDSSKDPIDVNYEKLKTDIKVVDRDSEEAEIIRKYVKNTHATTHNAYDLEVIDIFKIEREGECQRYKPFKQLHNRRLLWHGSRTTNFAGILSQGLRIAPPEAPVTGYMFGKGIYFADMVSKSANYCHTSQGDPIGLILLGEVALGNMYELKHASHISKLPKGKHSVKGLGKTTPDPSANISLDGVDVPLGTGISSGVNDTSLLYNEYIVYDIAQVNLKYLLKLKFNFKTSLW

IC50 [nM] | SMILES
< 100 | Cc1ccc(C2CCN(Cc3ccc4c5c(c(=O)[nH]c4c3)CCCC5)CC2)cc1 [Example 30, 3-{[4-(4-methylphenyl)-1-piperidyl]methyl}-7,8,9,10-tetrahydro-6(5H)-phenanthridinone hydrochloride]
< 100 | Cc1ccc(C2CCN(Cc3ccc4c(c3)[nH]c(=O)c3ccccc34)CC2)nc1 [Example 63, 3-{[4-(5-methyl-2-pyridyl)-1-piperidyl]methyl}-6(5H)-phenanthridinone]
< 100 | O=c1[nH]c2cc(CN3CCN(c4ccc(Cl)cn4)CC3)ccc2c2ccccc12 [Example 52, 3-{[4-(5-chloro-2-pyridyl)-1-piperazinyl]methyl}-6(5H)-phenanthridinone dihydrochloride]
< 100 | O=c1[nH]c2cc(CN3CCCCC3)ccc2c2ccccc12 [Example 60, 3-(1-piperidylmethyl)-6(5H)-phenanthridinone]
< 100 | O=c1[nH]c2c(Oc3ccccn3)cccc2c2c1CCCC2 [Example 42]

SMILES | IC50 [nM]
O=c1[nH]c2cc(CN3CCC(O)(c4ccccc4)CC3)ccc2c2c1CCCC2 [Example 35, 3-[(4-hydroxy-4-phenyl-1-piperidyl)methyl]-7,8,9,10-tetrahydro-6(5H)-phenanthridinone hydrochloride] | < 100
O=c1[nH]c2ccc(CCCN3CC=C(c4ccc(F)cc4)CC3)cc2c2ccccc12 [Example 2, 2-{3-[4-(4-fluorophenyl)-3,6-dihydro-1 (2H)-pyridyl]propyl}-6(5H)-phenanthridinone] | < 100
O=c1[nH]c2cc(CN3CC=C(c4ccc(Cl)cc4)CC3)ccc2c2c1CCCC2 [Example 15, 3-{[4-(4-Chlorophenyl)-3,6-dihydro-1(2H)-pyridyl]methyl}-7,8,9,10-tetrahydro-6(5H)-phenanthridinone] | < 100
